Experimental data reported in US20230279025A1, “KRAS G12D INHIBITORS” (Mirati Therapeutics, Inc., priority 2020, published 2023).
Structures can show the parent of a compound that is named as a salt.

Legend:
KRas G12D [1] = biological target: T1, KRas G12D (Homo sapiens (Human), UniProt P01116, G12D); assay: KRas G12D Surface Plasmon Resonance (SPR) Binding Assay; conditions: Biacore T200, immobilized biotinylated KRAS protein, 1:1 binding model
Description: Briefly, 1L of 1.05X HBS-Mg buffer (262.5 mM Bioultra Hepes, pH 7.5, 157.5 mM NaCl, 105 mM MgCl2, 0.525 mM TCEP, 0.0305% Brij-35) was prepared and filter sterilized using a 0.22 μm bottle top filter. Approximately 50 mL of 1.05X HBS-Mg buffer was removed and saved for future dilutions. A 50 mL aliquot of DMSO (Sigma Aldrich DMSO Lot. #SHBK2079) was added and continued to stir for 10 minutes, creating the final 1.0X HBS-Mg buffer (250 mM Bioultra Hepes pH 7.5, 150 mM NaCl, 100 mM MgCl2, 0.5 mM TCEP, 0.03% Brij-35).
Biacore T200 instrument was primed using 1.0X HBS-Mg buffer before docking a GE Streptavidin (SA) chip and then primed two additional times prior to beginning the immobilization step. All immobilized protein mixtures were created using 3-5 mg/mL Biotinylated Avidin-tagged KRAS protein using the following immobilization settings: SA chip type, 1 flow cells per cycle, 720 second contact time, and 5 ul/min flow rate. Normalization of the detector was also performed during the immobilization step using the GE BiaNormalize solution.
All compounds were diluted to 10 mM in 100% DMSO prior to being diluted 20X in 1.05X buffer. Another 10X dilution was created using 1.0X buffer prior to performing a series of 3X dilutions to create a compound concentration curve using the following assay settings: 20C analysis temperature, General Settings=10 Hz data collection rate and multi-detection; Assay Steps=all set to LMW kinetics; Cycle Types=LMW kinetics (60 s contact time, 120 s dissociation time, 100 ul/min flow rate, extra wash after injection with 50% DMSO, flow path 1,2,3,4); Flow path detection=2-1, 4-3). Data evaluation was performed using the Biacore T200 Evaluation software and data fit to 1:1 binding model. ND=not determined.
Target sequence in this assay (P01116-2 other isoform, or with tags, fused parts or gaps G12D): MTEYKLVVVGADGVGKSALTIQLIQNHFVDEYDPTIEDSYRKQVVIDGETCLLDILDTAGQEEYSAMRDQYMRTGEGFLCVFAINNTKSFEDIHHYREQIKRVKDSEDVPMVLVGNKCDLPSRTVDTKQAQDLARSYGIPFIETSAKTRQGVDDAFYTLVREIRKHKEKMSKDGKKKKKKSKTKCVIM

KRas G12D [2] = biological target: T1, KRas G12D; assay: KRas G12D Binding Assay (TR-FRET displacement of Cy5 labelled tracer); conditions: GDP-loaded KRAS G12D (amino acids 1:169), 60 minute incubation at 22° C.
Description: After a 60 minute incubation at 22° C., the reaction was measured using a PerkinElmer EnVision multimode plate reader via TR-FRET dual wavelength detection, and the percent of control (POC) calculated using a ratiometric emission factor. […] The POC values were fit to a 4-parameter logistic curve and the IC50 value was determined as the concentration where the curve crosses 50 POC.
ND stands for “not determined.”
Target sequence in this assay (P01116 other isoform, or with tags, fused parts or gaps G12D): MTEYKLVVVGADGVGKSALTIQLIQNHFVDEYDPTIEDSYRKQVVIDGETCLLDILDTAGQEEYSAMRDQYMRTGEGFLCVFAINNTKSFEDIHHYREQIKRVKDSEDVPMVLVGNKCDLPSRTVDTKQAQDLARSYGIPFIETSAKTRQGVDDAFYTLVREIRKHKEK

Compound | Kd (KRas G12D [1]) | IC50 (KRas G12D [2])
Fc1c(-c2cccc3cccc(Cl)c23)ncc2c(N3CC4CCC(C3)N4)nc(OC[C@@]34CCCN3C[C@H](F)C4)nc12 (stereo in doubt) [Example 134, 4-((1R,5S)-3,8-diazabicyclo[3.2.1]octan-3-yl)-7-(8-chloronaphthalen-1-yl)-8-fluoro-2-((2-fluorotetrahydro-1H-pyrrolizin-7a(5H)-yl)methoxy)pyrido[4,3-d]pyrimidine] | 6.9 nM | 3.7 nM
CN1CCC[C@H]1COc1nc(N2C[C@H]3CC[C@@H](C2)N3)c2cnc(-c3cc(O)cc4ccccc34)cc2n1 [Example 1, 4-(4-((1R,5S)-3,8-diazabicyclo[3.2.1]octan-3-yl)-2-(((S)-1-methylpyrrolidin-2-yl)methoxy)pyrido[4,3-d]pyrimidin-7-yl)naphthalen-2-ol tris-hydrochloride salt] | 97.7 nM | 125 nM
Cn1ccnc1CCOc1nc(N2C[C@H]3CC[C@@H](C2)N3)c2cnc(-c3cc(O)cc4ccccc34)c(F)c2n1 [Example 3, 4-(4-((1R,5S)-3,8-diazabicyclo[3.2.1]octan-3-yl)-8-fluoro-2-(2-(1-methyl-1H-imidazol-2-yl)ethoxy)pyrido[4,3-d]pyrimidin-7-yl)naphthalen-2-ol] | 8.3 nM | 9.5 nM
Oc1cc(-c2ncc3c(N4C[C@H]5CC[C@@H](C4)N5)nc(OCCc4ccccn4)nc3c2F)c2ccccc2c1 [Example 4, 4-(4-((1R,5S)-3,8-diazabicyclo[3.2.1]octan-3-yl)-8-fluoro-2-(2-(pyridin-2-yl)ethoxy)pyrido[4,3-d]pyrimidin-7-yl)naphthalen-2-ol] | 156 nM | 496 nM
Cn1nccc1COc1nc(N2C[C@H]3CC[C@@H](C2)N3)c2cnc(-c3cc(O)cc4ccccc34)c(F)c2n1 [Example 5, 4-(4-((1R,5S)-3,8-diazabicyclo[3.2.1]octan-3-yl)-8-fluoro-2-((1-methyl-1H-pyrazol-5-yl)methoxy)pyrido[4,3-d]pyrimidin-7-yl)naphthalen-2-ol] | 295 nM | 723 nM
Cc1cccnc1CCOc1nc(N2C[C@H]3CC[C@@H](C2)N3)c2cnc(-c3cc(O)cc4ccccc34)c(F)c2n1 [Example 6, 4-(4-((1R,5S)-3,8-diazabicyclo[3.2.1]octan-3-yl)-8-fluoro-2-(2-(3-methylpyridin-2-yl)ethoxy)pyrido[4,3-d]pyrimidin-7-yl)naphthalen-2-ol] | 442 nM | 434 nM
Oc1cc(-c2ncc3c(N4C[C@H]5CC[C@@H](C4)N5)nc(OCCc4ncccn4)nc3c2F)c2ccccc2c1 [Example 7, 4-(4-((1R,5S)-3,8-diazabicyclo[3.2.1]octan-3-yl)-8-fluoro-2-(2-(pyrimidin-2-yl)ethoxy)pyrido[4,3-d]pyrimidin-7-yl)naphthalen-2-ol] | 464 nM | 1870 nM
Cn1ccc(COc2nc(N3C[C@H]4CC[C@@H](C3)N4)c3cnc(-c4cc(O)cc5ccccc45)c(F)c3n2)n1 [Example 8, 4-(4-((1R,5S)-3,8-diazabicyclo[3.2.1]octan-3-yl)-8-fluoro-2-((1-methyl-1H-pyrazol-3-yl)methoxy)pyrido[4,3-d]pyrimidin-7-yl)naphthalen-2-ol] | 2140 nM | 1520 nM
CN1CCC[C@H]1CCOc1nc(N2C[C@H]3CC[C@@H](C2)N3)c2cnc(-c3cc(O)cc4ccccc34)c(F)c2n1 [Example 10, 4-(4-((1R,5S)-3,8-diazabicyclo[3.2.1]octan-3-yl)-8-fluoro-2-(2-((S)-1-methylpyrrolidin-2-yl)ethoxy)pyrido[4,3-d]pyrimidin-7-yl)naphthalen-2-ol] | 33.8 nM | –
CCN1CCC[C@H]1COc1nc(N2C[C@H]3CC[C@@H](C2)N3)c2cnc(-c3cc(O)cc4ccccc34)c(F)c2n1 [Example 11, 4-(4-((1R,5S)-3,8-diazabicyclo[3.2.1]octan-3-yl)-2-(((S)-1-ethylpyrrolidin-2-yl)methoxy)-8-fluoropyrido[4,3-d]pyrimidin-7-yl)naphthalen-2-ol] | 4.9 nM | –
Oc1cc(-c2ncc3c(N4C[C@H]5CC[C@@H](C4)N5)nc(OC[C@@H]4CCCN4Cc4ccccc4)nc3c2F)c2ccccc2c1 [Example 12, 4-(2-(((S)-1-benzylpyrrolidin-2-yl)methoxy)-4-((1R,5S)-3,8-diazabicyclo[3.2.1]octan-3-yl)-8-fluoropyrido[4,3-d]pyrimidin-7-yl)naphthalen-2-ol] | 11 nM | –
CN(C)C(=O)CCOc1nc(N2C[C@H]3CC[C@@H](C2)N3)c2cnc(-c3cc(O)cc4ccccc34)c(F)c2n1 [Example 13, 3-((4-((1R,5S)-3,8-diazabicyclo[3.2.1]octan-3-yl)-8-fluoro-7-(3-hydroxynaphthalen-1-yl)pyrido[4,3-d]pyrimidin-2-yl)oxy)-N,N-dimethylpropanamide] | 511 nM | –
CN1CCC[C@H]1COc1nc(N2C[C@H]3CC[C@@H](C2)N3)c2cnc(-c3cccc4c3CCC4)c(F)c2n1 [Example 23, 4-((1R,5S)-3,8-diazabicyclo[3.2.1]octan-3-yl)-7-(2,3-dihydro-1H-inden-4-yl)-8-fluoro-2-(((S)-1-methylpyrrolidin-2-yl)methoxy)pyrido[4,3-d]pyrimidine] | 807 nM | –
CC(Oc1nc(N2C[C@H]3CC[C@@H](C2)N3)c2cnc(-c3cc(O)cc4ccccc34)c(F)c2n1)C1CCCN1C (stereo partly drawn) [Example 27, 4-(4-((1R,5S)-3,8-diazabicyclo[3.2.1]octan-3-yl)-8-fluoro-2-(1-(1-methylpyrrolidin-2-yl)ethoxy)pyrido[4,3-d]pyrimidin-7-yl)naphthalen-2-ol] | 25.9 nM | –
CN1C[C@H](C(F)(F)F)C[C@H]1COc1nc(N2C[C@H]3CC[C@@H](C2)N3)c2cnc(-c3cc(O)cc4ccccc34)c(F)c2n1 [Example 28, 4-(4-((1R,5S)-3,8-diazabicyclo[3.2.1]octan-3-yl)-8-fluoro-2-(((2S,4R)-1-methyl-4-(trifluoromethyl)pyrrolidin-2-yl)methoxy)pyrido[4,3-d]pyrimidin-7-yl)naphthalen-2-ol] | 58.7 nM | –
COc1cccnc1CCOc1nc(N2C[C@H]3CC[C@@H](C2)N3)c2cnc(-c3cc(O)cc4ccccc34)c(F)c2n1 [Example 140, 4-(4-((1R,5S)-3,8-diazabicyclo[3.2.1]octan-3-yl)-8-fluoro-2-(2-(3-methoxypyridin-2-yl)ethoxy)pyrido[4,3-d]pyrimidin-7-yl)naphthalen-2-ol] | 5590 nM | –
CN1CCC[C@H]1COc1nc(N2CC3CCC(C=O)(C2)N3)c2cnc(-c3cc(O)cc4ccccc34)c(F)c2n1 (stereo partly drawn) [Example 214, 3-(8-fluoro-7-(3-hydroxynaphthalen-1-yl)-2-(((S)-1-methylpyrrolidin-2-yl)methoxy)pyrido[4,3-d]pyrimidin-4-yl)-3,8-diazabicyclo[3.2.1]octane-1-carbaldehyde] | 284 nM | –
CN1CCC[C@H]1COc1nc(N2CC3CCC(CO)(C2)N3)c2cnc(-c3cc(O)cc4ccccc34)c(F)c2n1 (stereo partly drawn) [Example 215, 4-(8-fluoro-4-(1-(hydroxymethyl)-3,8-diazabicyclo[3.2.1]octan-3-yl)-2-(((S)-1-methylpyrrolidin-2-yl)methoxy)pyrido[4,3-d]pyrimidin-7-yl)naphthalen-2-ol bis(2,2,2-trifluoroacetate)] | 70.4 nM | –
Oc1cc(-c2ncc3c(N4C[C@H]5CC[C@@H](C4)N5)nc(OCc4ccccc4F)nc3c2F)c2ccccc2c1 [Example 217, 4-(4-((1R,5S)-3,8-diazabicyclo[3.2.1]octan-3-yl)-8-fluoro-2-((2-fluorobenzyl)oxy)pyrido[4,3-d]pyrimidin-7-yl)naphthalen-2-ol] | 2980 nM | –
